The values that follow come from PubChem BioAssay AID1996.

A word on the kinetic solubility: it is solubility judged after dilution from a stock solution rather than from solid.

In brackets after ≈: the same amount, converted by molar mass.

For this series the following is noted: buffer; pH 7.4; 200.0 µM.
In the case of `Nc1oc2ccccc2c(=O)c1-c1ccc2c(c1)OCO2`, the kinetic solubility was > 42.2 µg/mL.

`CCOc1ccc2[nH]c3c(NCCOC)ncnc3c2c1`: the solubility (kinetic) was > 42.9 µg/mL.

The compound `CN(C)S(=O)(=O)c1ccc(=S)[nH]c1` had a solubility (kinetic) of 12.2 µg/mL (≈ 55.9 µM).

Compound `Cc1cc(NC(=O)Cc2ccccc2C)no1` yielded a solubility (kinetic) of 32.5 µg/mL (≈ 141 µM).

For `COc1ccc2[nH]c(C(=O)N3CCC(Cc4ccccc4)CC3)cc2c1`, the kinetic solubility is < 0.4 µg/mL.

Take `Cc1ccc2sc(N(CCN(C)C)C(=O)/C=C/c3cccs3)nc2c1C.Cl`: the solubility (kinetic) was < 0.3 µg/mL.

On to `O=C(COC(=O)c1ccccc1Br)NCC1CCCO1` (configuration not stated), for which the solubility (kinetic) was > 51.3 µg/mL.

Take `COC(=O)c1ccc(COc2ccccc2/C=N/O)o1`: the kinetic solubility is > 41.3 µg/mL.

In the case of `Cc1cccc(C)c1NC(=O)CN1C(=O)C2CC=CCC2C1=O` (configuration not stated), the solubility (kinetic) was > 46.9 µg/mL.

As to `CCOC(=O)c1sc(=S)n(-c2ccccc2)c1C`, the kinetic solubility was 3.4 µg/mL (≈ 12.2 µM).

Compound `Cn1cccc1/C=C1/C(=O)NC(=O)N(Cc2ccc(F)cc2)C1=O` registered a kinetic solubility of 5.4 µg/mL (≈ 16.5 µM).

`CCOCCOc1cccc(C(=O)NC(c2ccccc2)c2ccccc2)c1`: the solubility (kinetic) was < 0.8 µg/mL.

Regarding `Cc1csc(SCC(=O)Nc2nncs2)n1`, the kinetic solubility is > 40.9 µg/mL.

In the case of `CNC(=S)N1CCC(Cc2ccccc2)CC1`, the solubility (kinetic) is 36.9 µg/mL (≈ 149 µM).

As for `Cc1cccc(C(=O)NC(C)c2ccc(-n3ccnc3)cc2)c1C` (configuration not stated), the kinetic solubility amounted to 43 µg/mL (≈ 135 µM).

`O=C(Nc1nc2ccccc2[nH]1)c1cc(F)cc(F)c1` had a solubility (kinetic) of 0.7 µg/mL (≈ 2.56 µM).

Take `Cc1ccccc1C(N)c1ccncc1.Cl` (configuration not stated): the kinetic solubility is > 40.7 µg/mL.

Compound `CCC(=Nc1cccc(C(F)(F)F)c1)c1c(O)n(C)c(=O)n(C)c1=O` displayed a kinetic solubility of 6.4 µg/mL (≈ 18 µM).

`O=C(Nc1cccc(O)c1)c1cccc(C(=O)Nc2cccc(O)c2)c1` registered a kinetic solubility of 1.8 µg/mL (≈ 5.17 µM).

`COc1ccc(-c2noc(CCC(=O)Nc3cccnc3)n2)cc1` returned a solubility (kinetic) of 3.8 µg/mL (≈ 11.7 µM). Against the preceding compound, the solubility kinetic is about 2.1-fold higher.

As for `O=C(O)CCCCCNS(=O)(=O)c1ccc2c(c1)OCCO2`, the solubility (kinetic) was > 49.4 µg/mL.

Consider `CC(=O)Nc1ccc(C(=O)OCc2ccc(F)cc2Cl)cc1`, for which the solubility (kinetic) is 1.7 µg/mL (≈ 5.28 µM).

Consider `O=C(Nc1nc2ccc(Br)cc2s1)c1ccco1`, for which the kinetic solubility is < 0.3 µg/mL.

Turning to `O=C1CSC(c2cccnc2)N1Cc1cccnc1` (configuration not stated), the solubility (kinetic) was determined as 40.2 µg/mL (≈ 148 µM).

The compound `S=C(NC1CCCCC1)N1CCCCC1` returned a solubility (kinetic) of 26.3 µg/mL (≈ 116 µM).

`CC1CCCC(C)N1C(=O)COC(=O)/C=C/c1ccc(Br)o1` (configuration not stated) had a kinetic solubility of 29.8 µg/mL (≈ 80.5 µM).

`O=C(O)c1cc(-c2ccc3ccccc3c2)nc2ccc(F)cc12`: the solubility (kinetic) is > 47.6 µg/mL.

In turn, `Cc1ccc(N2CC(C(=O)Nc3ccccc3N3CCCC3)CC2=O)cc1` (configuration not stated) displayed a solubility (kinetic) of 21.4 µg/mL (≈ 58.9 µM).

On to `CCCOc1ccc(C(CC(=O)O)NC(=O)Cc2ccccc2)cc1` (configuration not stated), for which the kinetic solubility was > 51.2 µg/mL.

Consider `Cc1cccc(C)c1OCC(=O)Nc1c(C)nn(C)c1C`, for which the kinetic solubility is > 43.1 µg/mL.

As to `S=C1NCN(Cc2ccccc2)CN1`, the solubility (kinetic) was > 31.1 µg/mL.

Turning to `COc1cc([N+](=O)[O-])cc2sc(NC(C)=O)nc12`, the solubility (kinetic) was 2.7 µg/mL (≈ 10.1 µM).

Regarding `C=CCc1c(C)c(C#N)c2nc3ccccc3n2c1N1CCCCC1`, the solubility (kinetic) is < 0.2 µg/mL.

`O=C(O)CCn1c(=S)n(CCC(=O)O)c2ccccc21`: the kinetic solubility is > 44.1 µg/mL.

Consider `O=C(Nc1nccs1)c1ccc(COc2ccccc2)o1`, for which the solubility (kinetic) is < 0.3 µg/mL.

The compound `COc1ccc(NC(=O)c2nc(SC)ncc2Cl)cc1` had a kinetic solubility of 8.2 µg/mL (≈ 26.5 µM).

The compound `CCN(CC)c1ccc(CNc2ccc3c(c2)ncn3CC)cc1` displayed a kinetic solubility of 21.9 µg/mL (≈ 67.9 µM).

In the case of `O=C(NCCOC(=O)c1ccccc1)c1ccc([N+](=O)[O-])cc1`, the kinetic solubility came to 14 µg/mL (≈ 44.5 µM).

As for `Cc1ccc(N2C(=O)Cc3ccccc3C2=O)cc1`, the kinetic solubility was > 37.7 µg/mL.

Regarding `CN1CCN(CC#CCC(O)(c2ccccc2)c2ccccc2)CC1.Cl`, the kinetic solubility was > 55.6 µg/mL.

For the compound `O=C(c1ccc2ccccc2n1)N1CCN(S(=O)(=O)c2ccccc2)CC1`, the solubility (kinetic) was > 57.2 µg/mL.

`COC(=O)C(Cc1ccccc1)N1CCS(=O)(=O)CC1` (configuration not stated): the kinetic solubility was > 44.6 µg/mL.
